Data from article PMC3166015 (Emerging Infectious Diseases, 2011).

Biological target: NA activity of oseltamivir-resistant (OR, H275Y) pandemic (H1N1) 2009 virus (Influenza A virus, UniProt C3W5S3, H275Y)
Assay type: biochemical

SMILES: CC(=O)N[C@H]1[C@H]([C@H](O)[C@H](O)CO)OC(C(=O)O)=C[C@@H]1N=C(N)N [Zanamivir, zanamivir]
- susceptibility by NA inhibition assay: sensitive

SMILES: CCC(CC)[C@H](NC(C)=O)[C@@H]1[C@H](O)[C@@H](C(=O)O)C[C@H]1N=C(N)N [peramivir]
- peramivir susceptibility: cross-resistance
